Key:
[1] = system: 4T1 murine breast cancer cells; assay: Bead-assisted flow cytometry for CD81+/Pimo+ vesicles from hypoxic or oxic cell cultures; type: cell-based; details: 100 μM pimonidazole, 24 hours, 0.5% oxygen vs regular air
Description: Isolating exosome from cell culture and Flow Cytometry analysis of isolated exosomes utilizing bead-assisted assay (FIGS. 10A-10B): 4T1 murine breast cancer cells were cultured in DMEM medium containing 10% Fetal Bovine Serum (FBS) at 37° C. in a humidified incubator with 5% CO2 and sub-cultured twice a week. For isolation of exosomes from 4T1 cultures, 1 million cells were plated in 10 cm plates and allowed to adhere overnight in the incubator. Cells were then washed with PBS, and the medium was changed to a medium containing 5% exosome-depleted FBS. Plates were grouped into four sets of five plates each. 100 μM pimonidazole was added to two sets, half of plates were incubated in a regular air incubator, and the other half in an incubator containing 0.5% Oxygen. After 24 hours, the medium was collected and subjected to sequential centrifugation at 1200, 3000, 10000, and 35000 rpm for 5, 15, 45 minutes, and 4 hours respectively. The final pellet was washed with PBS and centrifuged at 35000 rpm for 2 hours before being resuspended in 100 μl of PBS. The exosome amount was estimated using a BCA protein assay and the exosomes size was confirmed using a Nanoparticle Tracking Analyzer (NTA Instrument). […] Following the manufacture protocols, compensation beads were used to optimize fluorescence compensation settings and correct for spectral overlap between fluorophores. […]

[2] = system: exosomes isolated from hypoxic cells; assay: Fluorescent plate reader detection of pimonidazole adducts in isolated exosomes with FITC anti-pimonidazole antibody; type: cell-based; details: FITC-labeled anti-pimonidazole antibody, plate reader 485/528 nm
From the text: FIGS. 10A-10B are charts showing results from a flow cytometry-based bead assay designed to allow conventional flow cytometers to assess the presence of various markers on exosome sized particles. This is accomplished by using beads of known size which are bound by exosomes if they have the marker (antibody target) in question. It is clear that exosomes derived from hypoxic cells have an augmented amount of pimonidazole adducts present. The inventors also tested for the general immunoreactivity of hypoxic-cell derived exosomes using a standard plate reader and a commercially available fluorescently conjugated anti-pimonidazole antibody. Briefly, isolated exosomes from cell culture medium from mouse serum samples were, suspended in 1% bovine serum albumin, and incubated with a fluorescently tagged anti-pimonidazole antibody. After a period of 2 hours or overnight, the exosomes were washed twice, resuspended in PBS and the fluorescent signal was determined using a Cytation 5 multi-mode plate reader.
Labeling exosomes with FITC-conjugated anti-pimonidazole antibody and quantifying the labeled exosomes'(FIG. 11): 10-40 μg of exosomes were utilized for antibody labeling in a 100 μl total volume containing 1% BSA as a blocking reagent. […] Fluorescence readings were obtained using a Cytation 5 plate reader at excitation/emission wavelengths of 485/528 nm (+/−20 nm).

O=[N+]([O-])c1nccn1CC(O)CN1CCCCC1 (centres unmarked) [pimonidazole]
enhancement in percent of vesicles labeled in hypoxic vs oxic conditions [1]: 4 fold | increase in fluorescence signal, exosomes from hypoxic cells vs cells grown in normal oxygen [2]: ~2.5 fold

From patent US20260287579A1, “METHOD FOR NON-INVASIVE HYPOXIA DETECTION” (BioVentures, LLC, priority 2023, published 2026)
